Measurements: PMC6001238, “Iterative Chemical Engineering of Vancomycin Leads to Novel Vancomycin Analogs With a High in Vitro Therapeutic Index” (Frontiers in Microbiology, 2018)
Values after ≈ are worked out from the molar mass of the structure shown.

Columns and labels:
[1] = test system: E. faecalis VSE 1; assay: MIC, broth microdilution, vancomycin-sensitive E. faecalis (VSE 1); format: cell-based, Enterococcus faecalis; details: for MIC: Enterococcus faecalis VSE 1 (vancomycin-sensitive), read-out: MIC; for MIC-fold improvement vs. vancomycin: VSE 1, ratio of MIC of vancomycin and MIC of analogue
How it was run: (§1)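 Inhibitory concentrations were read by the CLSI broth microdilution procedure, with water and sterile broth as controls. One experiment added vancomycin (10 μM final) together with each analogue or reference antibiotic.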

[2] = test system: S. aureus VISA/HIP5827; assay: MIC, broth microdilution, vancomycin-intermediate S. aureus VISA HIP5827; format: cell-based, Staphylococcus aureus; details: for MIC: Staphylococcus aureus VISA/HIP5827, read-out: MIC; for MIC-fold improvement vs. vancomycin: VISA/HIP5827, ratio of MIC of vancomycin and MIC of analogue
How it was run: as §1

[3] = test system: E. faecalis VRE 29; assay: MIC, broth microdilution, vancomycin-resistant E. faecalis VRE 29 (VanA); format: cell-based, Enterococcus faecalis; details: for MIC: Enterococcus faecalis VRE 29 (vancomycin-resistant), read-out: MIC; for MIC-fold improvement vs. vancomycin: VRE 29, ratio of MIC of vancomycin and MIC of analogue
How it was run: as §1

[4] = test system: Murine leukemia (L1210) cells; assay: Cytostatic activity, L1210 cell proliferation; format: cell-based; details: mean ± SD of three experiments; highest concentration tested 250 µM; 2 days; read-out: Toxicity (IC50) L1210
How it was run: (§2)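 Coulter counter cell counts after 37°C culture with compound; IC50 = concentration giving 50% growth inhibition vs negative control. Incubation: L1210 2 d, CEM 3 d, HeLa 4 d. Suspension density before mixing with an equal volume of dilution: 300,000–500,000 cells/mL.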

[5] = test system: MRSA KS1; assay: MIC, broth microdilution, MRSA KS1; format: cell-based, Staphylococcus aureus; details: for MIC-fold improvement vs. vancomycin: MRSA KS1, ratio of MIC of vancomycin and MIC of analogue; for MIC: Staphylococcus aureus MRSA KS1, read-out: MIC
How it was run: as §1

[6] = test system: S. aureus VRSA; assay: MIC, broth microdilution, vancomycin-resistant S. aureus (VRSA); format: cell-based, Staphylococcus aureus; details: for MIC: Staphylococcus aureus VRSA, read-out: MIC; for MIC-fold improvement vs. vancomycin: VRSA, ratio of MIC of vancomycin and MIC of analogue
How it was run: as §1

[7] = test system: L1210, CEM and HeLa cell lines; assay: Cytostatic activity, average or summary over L1210, CEM and HeLa; format: cell-based; details: average of L1210, CEM and HeLa; read-out: Toxicity (IC50) Average
How it was run: as §2

[8] = test system: MRSA KS6; assay: MIC, broth microdilution, MRSA KS6; format: cell-based, Staphylococcus aureus; details: for MIC-fold improvement vs. vancomycin: MRSA KS6, ratio of MIC of vancomycin and MIC of analogue; for MIC: Staphylococcus aureus MRSA KS6, read-out: MIC
How it was run: as §1

[9] = test system: E. faecalis VRE 53; assay: MIC, broth microdilution, vancomycin-resistant E. faecalis VRE 53 (VanA); format: cell-based, Enterococcus faecalis; details: for MIC: Enterococcus faecalis VRE 53 (vancomycin-resistant), read-out: MIC; for MIC-fold improvement vs. vancomycin: VRE 53, ratio of MIC of vancomycin and MIC of analogue
How it was run: as §1

[10] = test system: MRSA KS89; assay: MIC, broth microdilution, MRSA KS89; format: cell-based, Staphylococcus aureus; details: for MIC-fold improvement vs. vancomycin: MRSA KS8, ratio of MIC of vancomycin and MIC of analogue; for MIC: Staphylococcus aureus MRSA KS8, read-out: MIC
How it was run: as §1

[11] = test system: human cervix carcinoma (HeLa) cells; assay: Cytostatic activity, HeLa cell proliferation; format: cell-based; details: mean ± SD of three experiments; highest concentration tested 250 µM; 4 days; read-out: Toxicity (IC50) HeLa
How it was run: as §2

[12] = test system: human T-lymphocyte (CEM) cells; assay: Cytostatic activity, CEM cell proliferation; format: cell-based; details: mean ± SD of three experiments; highest concentration tested 250 µM; 3 days; read-out: Toxicity (IC50) CEM
How it was run: as §2

[13] = test system: E. faecalis VRE 37; assay: MIC, broth microdilution, vancomycin-resistant E. faecalis VRE 37 (VanA); format: cell-based, Enterococcus faecalis; details: for MIC: Enterococcus faecalis VRE 37 (vancomycin-resistant), read-out: MIC; for MIC-fold improvement vs. vancomycin: VRE 37, ratio of MIC of vancomycin and MIC of analogue
How it was run: as §1

[14] = test system: MRSA KS2; assay: MIC, broth microdilution, MRSA KS2; format: cell-based, Staphylococcus aureus; details: for MIC-fold improvement vs. vancomycin: MRSA KS2, ratio of MIC of vancomycin and MIC of analogue; for MIC: Staphylococcus aureus MRSA KS2, read-out: MIC
How it was run: as §1

[15] = test system: E. faecalis VRE 6; assay: MIC, broth microdilution, vancomycin-resistant E. faecalis VRE 6 (VanA); format: cell-based, Enterococcus faecalis; details: for MIC: Enterococcus faecalis VRE 6 (vancomycin-resistant), read-out: MIC; for MIC-fold improvement vs. vancomycin: VRE 6, ratio of MIC of vancomycin and MIC of analogue
How it was run: as §1

[16] = test system: S. aureus VSSA (ATCC 6538); assay: MIC, broth microdilution, vancomycin-sensitive S. aureus (VSSA/MSSA, ATCC 6538); format: cell-based, Staphylococcus aureus; details: for MIC: Staphylococcus aureus VSSA, read-out: MIC; for MIC-fold improvement vs. vancomycin: VSSA, ratio of MIC of vancomycin and MIC of analogue
How it was run: as §1

MIC [1] [µM] | MIC-fold improvement vs. vancomycin [1] | MIC [2] [µM] | MIC-fold improvement vs. vancomycin [2] | MIC [3] [µM] | MIC-fold improvement vs. vancomycin [3] | MIC-fold improvement vs. vancomycin [5] | MIC [5] [µM] | MIC [6] [µM] | MIC-fold improvement vs. vancomycin [6] | MIC-fold improvement vs. vancomycin [8] | MIC [8] [µM] | MIC [9] [µM] | MIC-fold improvement vs. vancomycin [9] | MIC-fold improvement vs. vancomycin [10] | MIC [10] [µM] | Compound | IC50 [4] [µM] | IC50 [7] [µM] | IC50 [11] [µM] | IC50 [12] [µM] | also measured
0.39 (≈ 0.666 µg/mL) | 4 | 0.05 (≈ 0.0854 µg/mL) | 128 | 1.56 (≈ 2.66 µg/mL) | 256 | 1 | 0.78 (≈ 1.33 µg/mL) | 0.78 (≈ 1.33 µg/mL) | 128 | 4 | 0.20 (≈ 0.342 µg/mL) | 3.13 (≈ 5.35 µg/mL) | 128 | 4 | 0.20 (≈ 0.342 µg/mL) | CCCCCCCc1ccc(C(=O)NCCCNC(=O)C2NC(=O)C3NC(=O)C(NC(=O)C4NC(=O)C(CC(N)=O)NC(=O)C(NC(=O)C(CC(C)C)NC)C(O)c5ccc(c(Cl)c5)Oc5cc4cc(c5OC4OC(CO)C(O)C(O)C4OC4CC(C)(N)C(O)C(C)O4)Oc4ccc(cc4Cl)C3O)c3ccc(O)c(c3)-c3c(O)cc(O)cc32)cc1 (stereo not drawn) [Vanc-31] | 8.8 ± 0.6 | 37 | 86 ± 14 | 17 ± 5 | MIC [13]: 1.56 µM (≈ 2.66 µg/mL); MIC-fold improvement vs. vancomycin [13]: 256; MIC-fold improvement vs. vancomycin [14]: 4; MIC [14]: 0.20 µM (≈ 0.342 µg/mL); MIC [15]: 0.39 µM (≈ 0.666 µg/mL); MIC-fold improvement vs. vancomycin [15]: 513; MIC [16]: 0.20 µM (≈ 0.342 µg/mL); MIC-fold improvement vs. vancomycin [16]: 4
0.78 (≈ 1.31 µg/mL) | 2 | 0.78 (≈ 1.31 µg/mL) | 8 | 6.25 (≈ 10.5 µg/mL) | 64 | 4 | 0.20 (≈ 0.335 µg/mL) | 1.56 (≈ 2.61 µg/mL) | 64 | 4 | 0.20 (≈ 0.335 µg/mL) | 6.25 (≈ 10.5 µg/mL) | 64 | 4 | 0.20 (≈ 0.335 µg/mL) | CN[C@H](CC(C)C)C(=O)N[C@H]1C(=O)N[C@@H](CC(N)=O)C(=O)N[C@H]2C(=O)N[C@H]3C(=O)N[C@H](C(=O)N[C@H](C(=O)NCC(=O)Nc4ccc(Oc5ccccc5)cc4)c4cc(O)cc(O)c4-c4cc3ccc4O)[C@H](O)c3ccc(c(Cl)c3)Oc3cc2cc(c3O[C@@H]2O[C@H](CO)[C@@H](O)[C@H](O)[C@H]2O[C@H]2C[C@](C)(N)[C@H](O)[C@H](C)O2)Oc2ccc(cc2Cl)[C@H]1O [Vanc-71] | > 250 | 159 | 91 ± 36 | 137 ± 41 | MIC [13]: 6.25 µM (≈ 10.5 µg/mL); MIC-fold improvement vs. vancomycin [13]: 64; MIC-fold improvement vs. vancomycin [14]: 4; MIC [14]: 0.20 µM (≈ 0.335 µg/mL); MIC [15]: 3.13 µM (≈ 5.24 µg/mL); MIC-fold improvement vs. vancomycin [15]: 64; MIC [16]: 0.39 µM (≈ 0.653 µg/mL); MIC-fold improvement vs. vancomycin [16]: 2

Compound | MIC [1] [µM] | MIC-fold improvement vs. vancomycin [1] | MIC [2] [µM] | MIC-fold improvement vs. vancomycin [2] | MIC [3] [µM] | MIC-fold improvement vs. vancomycin [3] | MIC-fold improvement vs. vancomycin [5] | MIC [5] [µM] | MIC [6] [µM] | MIC-fold improvement vs. vancomycin [6] | MIC-fold improvement vs. vancomycin [8] | MIC [8] [µM] | MIC [9] [µM] | MIC-fold improvement vs. vancomycin [9] | MIC-fold improvement vs. vancomycin [10] | MIC [10] [µM] | IC50 [4] [µM] | IC50 [7] [µM] | IC50 [11] [µM] | IC50 [12] [µM] | also measured
CN[C@H](CC(C)C)C(=O)N[C@H]1C(=O)N[C@@H](CC(N)=O)C(=O)N[C@H]2C(=O)N[C@H]3C(=O)N[C@H](C(=O)N[C@H](C(=O)NCCNC(=O)/C=C/c4ccc(NS(=O)(=O)c5ccccc5)cc4)c4cc(O)cc(O)c4-c4cc3ccc4O)[C@H](O)c3ccc(c(Cl)c3)Oc3cc2cc(c3O[C@@H]2O[C@H](CO)[C@@H](O)[C@H](O)[C@H]2O[C@H]2C[C@](C)(N)[C@H](O)[C@H](C)O2)Oc2ccc(cc2Cl)[C@H]1O [Vanc-54] | 0.78 (≈ 1.39 µg/mL) | 2 | 0.78 (≈ 1.39 µg/mL) | 8 | 25 (≈ 44.4 µg/mL) | 16 | 2 | 0.39 (≈ 0.693 µg/mL) | 0.39 (≈ 0.693 µg/mL) | 256 | 2 | 0.39 (≈ 0.693 µg/mL) | 25 (≈ 44.4 µg/mL) | 16 | 2 | 0.39 (≈ 0.693 µg/mL) | > 250 | 185 | 54 ± 29 | ≥ 250 | MIC [13]: 25 µM (≈ 44.4 µg/mL); MIC-fold improvement vs. vancomycin [13]: 16; MIC-fold improvement vs. vancomycin [14]: 2; MIC [14]: 0.39 µM (≈ 0.693 µg/mL); MIC [15]: 12.5 µM (≈ 22.2 µg/mL); MIC-fold improvement vs. vancomycin [15]: 16; MIC [16]: 0.39 µM (≈ 0.693 µg/mL); MIC-fold improvement vs. vancomycin [16]: 2
